Measured values as given in article PMC4470815, “Selective Cytotoxicity of 1,3,4-Thiadiazolium Mesoionic Derivatives on Hepatocarcinoma Cells (HepG2)” (PLoS ONE, 2015).

Molecular target: T1, ABCG2 (Homo sapiens, UniProt Q9UNQ0)
T1 sequence (Q9UNQ0 1-655): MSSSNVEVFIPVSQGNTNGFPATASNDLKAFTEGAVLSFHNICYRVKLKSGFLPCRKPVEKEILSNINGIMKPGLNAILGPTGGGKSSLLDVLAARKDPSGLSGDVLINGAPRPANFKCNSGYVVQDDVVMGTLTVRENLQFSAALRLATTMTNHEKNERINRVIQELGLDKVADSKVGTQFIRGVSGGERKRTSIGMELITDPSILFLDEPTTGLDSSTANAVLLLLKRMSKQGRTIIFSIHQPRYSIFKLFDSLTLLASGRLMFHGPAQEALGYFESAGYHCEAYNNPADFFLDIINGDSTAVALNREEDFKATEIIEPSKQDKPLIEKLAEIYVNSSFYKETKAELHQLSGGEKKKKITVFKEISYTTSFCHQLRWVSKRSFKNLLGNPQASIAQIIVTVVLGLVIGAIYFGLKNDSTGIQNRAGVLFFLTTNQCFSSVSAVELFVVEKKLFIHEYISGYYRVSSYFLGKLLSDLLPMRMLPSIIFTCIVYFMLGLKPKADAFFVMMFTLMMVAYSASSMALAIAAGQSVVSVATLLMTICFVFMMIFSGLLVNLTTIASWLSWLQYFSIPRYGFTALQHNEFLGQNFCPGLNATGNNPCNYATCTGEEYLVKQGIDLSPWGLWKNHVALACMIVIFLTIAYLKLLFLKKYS
Test: inhibition of mitoxantrone efflux in HEK293ABCG2 cells, flow cytometry
Type: cell-based
Conditions: read-out: ABCG2 / EC50

Compound | IC50 [µM]
O=[N+]([O-])c1ccc(/C=C/c2sc(Nc3ccccc3)n[n+]2-c2ccccc2)cc1 [MI-D, 4-phenyl-5-(4-nitrocinnamoyl)-1,3,4-thiadiazolium-2-phenylamine chloride] | 24.3 ± 9.6
Oc1ccc(/C=C/c2sc(Nc3ccccc3)n[n+]2-c2ccccc2)cc1 [MI-J] | 8.5 ± 4.8
